# In US20030195152A1, “Polymeric conjugates of antitumor agents” (priority 2000, published 2003):
# Test system: human colon carcinoma (HT29)
# Assay: Antitumor activity on human colon carcinoma (HT29) transplanted in nude mice
# Format: in vivo
# Conditions: for TI % (tumor inhibition %): calculated at day 46, HT29 sc in nude mice
# Description: Campound (A1a) was tested on human colon carcinoma (HT29) transplanted in nude mice, in comparison with the free drug 7-ethyl-10-hydroxycamptothecin (12) by i.v. route. A1a was found non toxic at all tested doses and gave 98% tumor inhibition at the highest tested dose of 20 mg/kg (Table 1).
# [1] = dose 10 mg/kg i.v. q4dx6, total dose 60 mg/kg
# [2] = dose 20 mg/kg i.v. q4dx6, total dose 120 mg/kg
# [3] = dose 30 mg/kg i.v. q4dx6, total dose 180 mg/kg
# [4] = dose 40 mg/kg i.v. q4dx6, total dose 240 mg/kg
Molecule,Tox (number of mice died for toxicity/total number mice) [1],TI % (tumor inhibition %) [1],Tox (number of mice died for toxicity/total number mice) [2],TI % (tumor inhibition %) [2],"toxicity (all tested doses, i.v., nude mice bearing HT29)","TI % (tumor inhibition %) (dose 20 mg/kg i.v. q4dx6, total dose 120 mg/kg, listed as Ala)",Tox (number of mice died for toxicity/total number mice) [3],TI % (tumor inhibition %) [3],Tox (number of mice died for toxicity/total number mice) [4],TI % (tumor inhibition %) [4]
"CCc1c2c(nc3ccc(O)cc13)-c1cc3c(c(=O)n1C2)COC(=O)[C@]3(O)CC [Compound 12, 7-ethyl-10-hydroxycamptothecin, reference compound]",0/7,67%,3/7,97%,,,,,,
"Copolymer of N-(2-hydroxypropyl)methacryloylamide, 7-ethyl-10-hydroxy-20-O-[N-methacryloyl-6-aminohexanoyl-(methionyl-sulfoxide)-glycyl-(S-benzyl-cysteinyl)-leucyl-glycyl]camptothecin and N-(2-hydroxypropyl)methacryloylglycinamide [Compound A1a]",0/7,85%,0/7,98%,non toxic,97%,0/7,97%,0/7,97%
